Values joined by “and” are separate entries in the source; they are usually repeats but may differ in a detail not shown here. Equal values may be shown once.

Assay type in all cases: cell-based
One assay deals with myeloma ARH-77 cells. Description: MTT assay on myeloma ARH-77 cells, chemotherapeutic drug alone or combined with TN-GL-01 or a comparative drug. The settings on record: for IC50: Homo sapiens, ARH-77 cells, chemotherapeutic agent alone (control). On the procedure:
(§1) Ovarian cancer cell ES-2 and myeloma cell line ARH-77 were used in the present disclosure. Cells was cultured and maintained in Dulbecco's modified Eagle media (DMEM) supplemented with 10 % fetal bovine serum (FBS), 100 IU/ml penicillin, […] streptomycin, 2 mM glutamine, nonessential amino acids and sodium pyruvate in 5% CO2 at 37 °C. Cells were grown and maintained in Petri dishes (each was 10 cm in diameter) until they reached 80% confluence, and then were subject to cell passages. Briefly, cells were first washed with phosphate buffer solution (PBS, 3 ml) once, then treated with 0.05% Trypsin/0.025% EDTA solution (1 mL) for 5 min so that the attached cells become suspended. The suspended cells were harvested and 2 mL fresh culture media were added therein to neutralize any remaining activity of trypsin. Cell density was adjusted by adding appropriate amounts of culture medium to the cell suspension, which was then used to seed the culture plates. The plates were then returned to the incubator, and cultured in accordance with the steps described above.
Cells were seeded in 96-well plates with a density of 3,000 cells/well and cultured in accordance with the procedures described above. On the day when cell activity analysis was to be conducted, cells were first treated with various concentrations of the triterpenoids of the present disclosure, imatinib or gefitinib for at least 48 hrs, before subjecting them to MTT assay.
50 µL of the MTT stock solution (5 mg MTT dissolved in 1 ml of sterile PBS) was added to each well, and 50 µL of the MTT stock solution was added to 500 µL of medium alone and used as a negative control. Each sample was incubated at 37°C for 4 hours. Aliquots (450 µl) from each sample were taken to a new well of 48-well culture plate, adding 100µL DMSO, mixing thoroughly using the pipette and reacted at 37°C for 20 min and absorbance was measured at 570 nm.
In this example, the effect of TN-GL-01 composition of example 1.1 on the cell killing effect of a chemotherapeutic drug (i.e., etoposide, doxorubicin, cisplatin, and paclitaxel) on myeloma ARH-77 cells was investigated, in which cyclophosphamide served as a comparative drug. Results are summarized in Tables 1 to 3, and Figures 3 and 4.
To determine the effects of combined use of TN-GL-01 and any other three drugs including paclitaxel, doxorubicin, and cisplatin, the statistical differences between expected value and oberved value of the survival rate were calculated. If no significantance existed between the expected and observed values, the effect is termed"additivity (p > 0.05)". […] The expected value was determined by multifying the survival rate of each drug in specific dose. The obtained value and value of each survival rate were measured by MMT assay (Fig. 3 and Fig. 4).
(In general: Tetrazolium dyes change colour on reduction, which living cells bring about.)

The next assay deals with ES-2 cells. The experiment in a line: MTT assay (cell activity analysis) on ovarian cancer ES-2 cells. As to conditions: treatment at least 48 hrs. The protocol: as §1, with “The suspended cells were harvested and 2 mL fresh culture media were added therein to neutralize any remaining activity of trypsin. Cell density was adjusted by adding appropriate amounts of culture medium to the cell suspension, which was then used to seed the culture plates. The plates were then returned to the incubator, and cultured in accordance with the steps described above.” left out
50 µL of the MTT stock solution (5 mg MTT dissolved in 1 ml of sterile PBS) was added to each well, and 50 µL of the MTT stock solution was added to 500 µL of medium alone and used as a negative control. […] Aliquots (450 µl) from each sample were taken to a new well of 48-well culture plate, adding 100µL DMSO, mixing thoroughly using the pipette and reacted at 37°C for 20 min and absorbance was measured at 570 nm.
The effects of the TN-GL-01 composition of example 1.1 on ovarian cancer cells (i.e., ES-2 cells) were evaluated by MTT assay in accordance with procedures described in the "Material and Methods" section.

Another assay relates to galectin-1. The experiment in a line: Western blot analysis of galectin-1 expression in ES-2 cells. The settings on record: Figure 2. The protocol:
Samples were respectively subjected to SDS-PAGE, transferred to PVDF membranes. These blots were blocked with 5% nonfat milk powder in TBS-0.1% Tween-20 for 30 minutes, followed by incubation with primary antibodies at 4°C overnight and then horseradish peroxidaseconjugated secondary antibodies (Amersham Biosciences, Piscataway). Imaging of bands was performed using Pierce ECL Western Blotting Substrate (Thermo Fisher Scientific) and ImageQuant LAS-4000 (GE Healthcare).
In this example, the effects of TN-GL-01 composition on the expression of galectin-1 in ERK (extracellular-signal-regulated kinase) pathway was invesigated via western blot analysis. […] Thus, it was concluded that the present TN-GL-01 composition exerted its function through suppression of galectin -1.

Where [1] appears, read: Table 2, second agent alone: TN-GL-01 20 µg/mL, Doxorubicin 100 nM, Cisplatin 3 µM.
Setting [2] is: Table 3, second agent alone: TN-GL-01 20 µg/mL, Paclitaxel 40 µM, Cisplatin 3 µM.

For the compound `COc1cccc2c1C(=O)c1c(O)c3c(c(O)c1C2=O)C[C@@](O)(C(=O)CO)C[C@@H]3O[C@H]1C[C@H](N)[C@H](O)[C@H](C)O1` [Doxorubicin], the IC50 (usually the concentration that inhibits the measured activity by half) with myeloma ARH-77 cells came out at 99 nM. In addition, the “Cell Survival Rate, single drug (factor of expected value)” value (shortened to “Cell Survival Rate, single drug”) with myeloma ARH-77 cells (setting [1]) is listed as 0.58.

Turning to `N.N.[Cl][Pt][Cl]` [Cisplatin], the entries for the “Cell Survival Rate, single drug” value with myeloma ARH-77 cells (setting [1]) and in the assay with myeloma ARH-77 cells (setting [2]) were 0.65 and 0.69, respectively.

On to `COc1cc([C@@H]2c3cc4c(cc3[C@@H](O[C@@H]3O[C@@H]5CO[C@@H](C)O[C@H]5[C@H](O)[C@H]3O)[C@H]3COC(=O)[C@H]23)OCO4)cc(OC)c1O` [Etoposide], for which, in the assay with myeloma ARH-77 cells, the IC50 worked out at 415 nM.

For the compound `CC(=O)O[C@@H](C/C=C(\C)C(=O)O)[C@@H](C)[C@H]1C[C@H](OC(C)=O)[C@@]2(C)C3=CC[C@H]4C(C)(C)[C@H](OC(C)=O)CC[C@]4(C)C3=CC[C@]12C` [GAT, ganoderic acid T], the “50% inhibition of ES-2 cells (IC50)” value in the assay on ES-2 cells is given as 24.5 µg/mL. Further, the “expression of galectin-1” value with galectin-1 was “effective in suppressing”.

As for `C/C(=C/CC[C@@H](C)[C@H]1CC[C@@]2(C)C3=CC[C@H]4C(C)(C)C(=O)CC[C@]4(C)C3=CC[C@]12C)C(=O)O` [GAS, ganoderic acid S], the “50% inhibition of ES-2 cells (IC50)” value in the assay on ES-2 cells is on record as 58.3 µg/mL. Moreover, the “expression of galectin-1” value in the assay with galectin-1 is given as “effective in suppressing”.

Turning to `CC(=O)O[C@H]1C(=O)[C@@]2(C)[C@H]([C@H](OC(=O)c3ccccc3)[C@]3(O)C[C@H](OC(=O)[C@H](O)[C@@H](NC(=O)c4ccccc4)c4ccccc4)C(C)=C1C3(C)C)[C@]1(OC(C)=O)CO[C@@H]1C[C@@H]2O` [Paclitaxel], the “Cell Survival Rate, single drug” value in the assay with myeloma ARH-77 cells (Table 2, Paclitaxel 62.5 nM alone) was 0.68 × 0.82 = 0.56±0.03 and 0.68; with myeloma ARH-77 cells (Table 2, Paclitaxel 125 nM alone) it was 0.50 × 0.82 = 0.41±0.03 and 0.50; in the assay with myeloma ARH-77 cells (setting [2]), 0.65.

The values are drawn from patent EP3821949B1, “PHARMACEUTICAL COMPOSITION FOR USE IN THE TREATMENT OF A CANCER ASSOCIATED WITH THE ACTIVATION OF GALECTIN-1” (Trineo Biotechnology Co. Ltd, priority 2019, dated 2021).
